Data published in patent publication US20120184556A1, “SUBSTITUTED ENZOIMIDAZOLESULFONAMIDES AND SUBSTITUTED INDOLESULFONAMIDES AS MGLUR4 POTENTIATORS” (priority 2009, published 2012).
Where a name gives a salt, the structure may show the parent alone.

Target: T1, human mGluR4 (Homo sapiens, UniProt Q14833)
T1 construct: expressed in transfected cells; host or cells: Chinese Hamster Ovary (CHO) cells
Assay: human mGluR4 potentiation assay, CHO cells, Fluo-4 calcium fluorescence, agonist EC20
Type: cell-based
Conditions: for Emax: CHO, maximum extent of potentiation, human mGluR4, read-out: GluMax; for EC50: potentiation of human mGluR4 response to EC20 agonist, read-out: hEC50
Experimental: The disclosed compounds and compositions can be evaluated for their ability to act as a potentiator of metabotropic glutamate receptor activity, in particular mGluR4 activity, by any suitable known methodology known in the art. For example, Chinese Hamster Ovary (CHO) cells transfected with human mGluR4 or HEK cells co-transfected with rat mGluR4 and the G-protein regulated Inwardly Rectifying Potassium channel (GIRK) were plated in clear bottom assay plates for assay in a Hamamatsu FDSS Fluorometric Plate Reader. The cells were loaded with either the Ca2+-sensitive fluorescent dye Fluo-4 or the thallium responsive dye BTC, AM and the plates were washed and placed into a suitable kinetic plate reader. For human mGluR4 assays, a fluorescence baseline was established for 3-5 seconds, the disclosed compounds were then added to the cells, and the response in cells was measured. Approximately two and a half minutes later, a concentration of mGluR4 agonist (e.g. glutamate or L-AP4) eliciting approximately 20% (EC20) of the maximal agonist response was added to the cells, and the response was measured. Two minutes later, a concentration of mGluR4 agonist (e.g. glutamate or L-AP4) eliciting 80% (EC80) of the maximal agonist response was added to the cells, and the response was measured. For rat mGluR4/GIRK experiments, a baseline was established for approximately five seconds, disclosed compounds were added, and either an EC20 or EC80 concentration of agonist was added approximately two and one half minutes later. Potentiation of the agonist response of mGluR4 by the disclosed compounds was observed as an increase in response to the EC20 concentration of agonist in the presence of compound compared to the response to agonist in the absence of compound. Similarly, antagonism of the agonist response of mGluR4 by the disclosed compounds was observed as a decrease in response to the EC80 concentration of agonist in the presence of compound compared to the response to agonist in the absence of compound.
The above described assay operated in two modes. In the first mode, a range of concentrations of the disclosed compounds are added to cells, followed by a single fixed concentration of agonist. If the compound acts as a potentiatior, an EC50 value for potentiation and a maximum extent of potentiation by the compound at this concentration of agonist is determined by non-linear curve fitting. If the compound acts as a noncompetitive antagonist, an IC50 value is determined by non-linear curve fitting. In the second mode, several fixed concentrations of the disclosed compounds are added to various wells on a plate, followed by a range in concentrations of agonist for each concentration of disclosed compound. The EC50 values for the agonist at each concentration of compound are determined by non-linear curve fitting. A decrease in the EC50 value of the agonist with increasing concentrations of the sample compound (a leftward shift of the agonist concentration-response curve) is an indication of the degree of mGluR4 potentiation at a given concentration of the sample compound. A decrease in the maximal response of the agonist with increasing concentrations of the sample compounds, with or without a rightward shift in agonist potency, is an indication of the degree of noncompetitive antagonism at mGluR4. The second mode also indicates whether the sample compounds also affect the maximum response to mGluR4 to agonists.

T1 sequence (Q14833 33-912): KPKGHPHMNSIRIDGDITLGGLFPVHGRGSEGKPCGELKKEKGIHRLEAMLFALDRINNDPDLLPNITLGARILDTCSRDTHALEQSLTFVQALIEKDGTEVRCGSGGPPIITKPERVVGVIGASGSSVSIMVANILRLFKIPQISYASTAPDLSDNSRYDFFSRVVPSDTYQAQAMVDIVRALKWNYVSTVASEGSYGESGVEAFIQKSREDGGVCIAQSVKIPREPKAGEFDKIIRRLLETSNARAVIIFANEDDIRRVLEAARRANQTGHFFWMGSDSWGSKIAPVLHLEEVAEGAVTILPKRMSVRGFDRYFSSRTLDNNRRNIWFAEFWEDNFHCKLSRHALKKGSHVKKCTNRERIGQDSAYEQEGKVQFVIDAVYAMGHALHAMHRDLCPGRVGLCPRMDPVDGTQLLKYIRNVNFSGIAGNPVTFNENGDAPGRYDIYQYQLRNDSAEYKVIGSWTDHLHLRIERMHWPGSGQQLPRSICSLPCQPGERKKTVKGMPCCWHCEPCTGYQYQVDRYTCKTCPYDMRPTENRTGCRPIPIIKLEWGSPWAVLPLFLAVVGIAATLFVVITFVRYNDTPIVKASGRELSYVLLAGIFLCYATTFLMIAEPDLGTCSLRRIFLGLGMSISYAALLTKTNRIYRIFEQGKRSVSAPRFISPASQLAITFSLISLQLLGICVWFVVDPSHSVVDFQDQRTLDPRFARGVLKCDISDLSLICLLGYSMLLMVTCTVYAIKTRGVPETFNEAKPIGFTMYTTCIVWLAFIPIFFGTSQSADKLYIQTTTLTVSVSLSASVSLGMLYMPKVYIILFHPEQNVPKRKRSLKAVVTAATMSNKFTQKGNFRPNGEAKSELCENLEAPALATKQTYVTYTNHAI

Row | SMILES | Emax [%] | EC50 [nM]
1 | O=S(=O)(Nc1ccc(F)cc1F)c1ccc2[nH]c(-c3ccccn3)nc2c1 [Example 51, N-(2,4-difluorophenyl)-2-(pyridin-2-yl)-1H-benzo[d]imidazole-5-sulfonamide] | 252 | 99
2 | O=S(=O)(Nc1ccccc1F)c1ccc2[nH]c(-c3cnccn3)nc2c1 [Example 37, N-(2-fluorophenyl)-2-(pyrazin-2-yl)-1H-benzo[d]imidazole-5-sulfonamide] | 118 | 5490
3 | N#Cc1ccc(NS(=O)(=O)c2ccc3[nH]c(-c4ccccc4)nc3c2)cc1 [Example 19, N-(4-Cyanophenyl)-2-phenyl-1H-benzo[d]imidazole-5-sulfonamide TFA salt] | 24 | 4900
4 | O=S(=O)(Nc1ccccc1Cl)c1ccc2[nH]c(-c3ccco3)nc2c1 [Example 25, N-(2-chlorophenyl)-2-(furan-2-yl)-1H-benzo[d]imidazole-5-sulfonamide] | 96 | 747
